Source: patent US12258327B2, “5-membered heteroaryl-containing aminopyridine compounds as EGFR inhibitors” (YUHAN CORPORATION, priority 2021, dated 2025)
Read-outs that look alike come from different tables or passages of the source.

Legend:
[1] = target: EGFR del19/T790M/C797S (Homo sapiens, UniProt P00533, C797S/DEL746-750/T790M); assay: Biochemical EGFR kinase assay (Lance Ultra TR-FRET), triple mutant del19/T790M/C797S
How it was run: (§1)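 Kinase activity is measured by TR-FRET phosphopeptide detection. Compounds span 0.003 μM to 10 μM; the 1 h reaction at room temperature is quenched with EDTA, then labelled antibody (2 nM) is incubated 60 min before reading.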

[2] = target: EGFR L858R/T790M/C797S (Homo sapiens, UniProt P00533, C797S/L858R/T790M); assay: Biochemical EGFR kinase assay (Lance Ultra TR-FRET), triple mutant L858R/T790M/C797S
How it was run: as §1

[3] = target: EGFR del19/C797S (Homo sapiens, UniProt P00533, C797S/DEL746-750); assay: Biochemical EGFR kinase assay (Lance Ultra TR-FRET), double mutant del19/C797S
How it was run: as §1

[4] = target: EGFR L858R/C797S (Homo sapiens, UniProt P00533, C797S/L858R); assay: Biochemical EGFR kinase assay (Lance Ultra TR-FRET), double mutant L858R/C797S
How it was run: as §1

[5] = target: EGFR wildtype (WT) (Homo sapiens, UniProt P00533); assay: Biochemical EGFR kinase assay (Lance Ultra TR-FRET), wildtype
How it was run: as §1

[6] = IC50 del19/T790M/C797S (nM) 100 μM ATP, 100 μM ATP
[7] = Km ATP, read-out: IC50 del19/T790M/C797S (nM) Km ATP
[8] = IC50 L858R/T790M/C797S (nM) 100 μM ATP, 100 μM ATP
[9] = Km ATP, read-out: IC50 L858R/T790M/C797S (nM) Km ATP
[10] = IC50 del19/C797S (nM) 100 μM ATP, 100 μM ATP
[11] = Km ATP, read-out: IC50 del19/C797S (nM) Km ATP
[12] = IC50 L858R/C797S (nM) 100 μM ATP, 100 μM ATP
[13] = Km ATP, read-out: IC50 L858R/C797S (nM) Km ATP
[14] = IC50 WT (nM) 100 μM ATP, 100 μM ATP
[15] = Km ATP, read-out: IC50 WT (nM) Km ATP

Sequence of EGFR L858R/C797S (P00533 25-1210 C797S/L858R): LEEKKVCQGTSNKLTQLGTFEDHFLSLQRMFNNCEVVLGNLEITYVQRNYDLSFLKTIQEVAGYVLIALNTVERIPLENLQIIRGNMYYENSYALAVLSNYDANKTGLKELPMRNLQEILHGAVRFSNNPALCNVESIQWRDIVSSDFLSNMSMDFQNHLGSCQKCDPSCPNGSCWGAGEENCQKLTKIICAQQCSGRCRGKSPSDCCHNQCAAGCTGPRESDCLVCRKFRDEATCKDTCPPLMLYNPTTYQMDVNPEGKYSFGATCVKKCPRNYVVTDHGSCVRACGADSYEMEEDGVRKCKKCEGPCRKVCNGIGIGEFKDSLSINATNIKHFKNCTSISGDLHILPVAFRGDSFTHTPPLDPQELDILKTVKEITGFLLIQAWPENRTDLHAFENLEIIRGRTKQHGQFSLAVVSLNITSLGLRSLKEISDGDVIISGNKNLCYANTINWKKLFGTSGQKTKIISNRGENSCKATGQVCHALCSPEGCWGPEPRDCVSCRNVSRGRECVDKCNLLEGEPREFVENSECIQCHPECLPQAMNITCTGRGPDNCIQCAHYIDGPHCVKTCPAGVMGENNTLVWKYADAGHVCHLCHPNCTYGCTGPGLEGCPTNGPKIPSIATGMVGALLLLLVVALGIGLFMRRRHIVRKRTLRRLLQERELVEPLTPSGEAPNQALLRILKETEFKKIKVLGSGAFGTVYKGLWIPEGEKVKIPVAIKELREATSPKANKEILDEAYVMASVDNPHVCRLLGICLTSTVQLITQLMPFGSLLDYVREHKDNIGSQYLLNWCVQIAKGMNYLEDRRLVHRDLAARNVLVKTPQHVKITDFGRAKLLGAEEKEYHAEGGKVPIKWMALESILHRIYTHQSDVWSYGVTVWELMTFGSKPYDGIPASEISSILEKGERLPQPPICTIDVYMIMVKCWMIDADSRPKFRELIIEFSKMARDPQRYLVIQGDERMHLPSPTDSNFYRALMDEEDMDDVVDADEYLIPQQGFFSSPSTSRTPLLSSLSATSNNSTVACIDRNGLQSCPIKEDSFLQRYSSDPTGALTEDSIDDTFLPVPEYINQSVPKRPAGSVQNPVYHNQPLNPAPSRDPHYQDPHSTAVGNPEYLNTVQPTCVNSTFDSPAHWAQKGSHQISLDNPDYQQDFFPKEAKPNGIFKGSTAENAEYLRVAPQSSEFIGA
Sequence of EGFR L858R/T790M/C797S (P00533 25-1210 T790M/C797S/L858R): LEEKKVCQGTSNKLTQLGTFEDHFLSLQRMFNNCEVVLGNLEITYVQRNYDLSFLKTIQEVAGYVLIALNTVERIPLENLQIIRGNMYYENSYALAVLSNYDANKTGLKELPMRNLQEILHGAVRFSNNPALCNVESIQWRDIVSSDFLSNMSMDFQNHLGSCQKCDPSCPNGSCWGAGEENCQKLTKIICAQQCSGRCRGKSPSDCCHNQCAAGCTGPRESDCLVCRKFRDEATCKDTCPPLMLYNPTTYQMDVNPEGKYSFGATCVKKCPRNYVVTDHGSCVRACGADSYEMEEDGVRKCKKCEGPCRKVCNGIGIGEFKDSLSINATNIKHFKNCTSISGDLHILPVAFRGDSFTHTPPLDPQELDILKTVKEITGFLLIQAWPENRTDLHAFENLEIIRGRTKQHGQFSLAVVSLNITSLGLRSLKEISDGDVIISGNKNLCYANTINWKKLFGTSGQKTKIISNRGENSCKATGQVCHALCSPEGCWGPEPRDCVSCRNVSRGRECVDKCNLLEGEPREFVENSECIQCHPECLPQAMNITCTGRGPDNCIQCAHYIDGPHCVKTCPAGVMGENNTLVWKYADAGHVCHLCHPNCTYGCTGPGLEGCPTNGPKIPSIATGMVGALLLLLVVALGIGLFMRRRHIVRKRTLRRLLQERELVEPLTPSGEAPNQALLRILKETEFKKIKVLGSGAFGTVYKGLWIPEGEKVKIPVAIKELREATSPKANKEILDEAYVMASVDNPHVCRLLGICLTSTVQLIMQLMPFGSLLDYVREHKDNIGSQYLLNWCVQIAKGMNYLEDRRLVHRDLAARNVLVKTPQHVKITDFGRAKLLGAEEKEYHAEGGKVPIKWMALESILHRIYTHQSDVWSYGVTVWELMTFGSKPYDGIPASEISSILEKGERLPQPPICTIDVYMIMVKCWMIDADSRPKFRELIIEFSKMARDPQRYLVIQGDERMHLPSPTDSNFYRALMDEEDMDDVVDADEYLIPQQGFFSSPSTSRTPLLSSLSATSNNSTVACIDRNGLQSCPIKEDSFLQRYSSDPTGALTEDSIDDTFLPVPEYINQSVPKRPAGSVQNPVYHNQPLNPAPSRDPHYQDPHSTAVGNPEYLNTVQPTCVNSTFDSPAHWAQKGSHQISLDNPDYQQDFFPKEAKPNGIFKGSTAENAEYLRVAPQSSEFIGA
Sequence of EGFR del19/T790M/C797S (P00533 with tags, fused parts or gaps DEL746-750/T790M/C797S): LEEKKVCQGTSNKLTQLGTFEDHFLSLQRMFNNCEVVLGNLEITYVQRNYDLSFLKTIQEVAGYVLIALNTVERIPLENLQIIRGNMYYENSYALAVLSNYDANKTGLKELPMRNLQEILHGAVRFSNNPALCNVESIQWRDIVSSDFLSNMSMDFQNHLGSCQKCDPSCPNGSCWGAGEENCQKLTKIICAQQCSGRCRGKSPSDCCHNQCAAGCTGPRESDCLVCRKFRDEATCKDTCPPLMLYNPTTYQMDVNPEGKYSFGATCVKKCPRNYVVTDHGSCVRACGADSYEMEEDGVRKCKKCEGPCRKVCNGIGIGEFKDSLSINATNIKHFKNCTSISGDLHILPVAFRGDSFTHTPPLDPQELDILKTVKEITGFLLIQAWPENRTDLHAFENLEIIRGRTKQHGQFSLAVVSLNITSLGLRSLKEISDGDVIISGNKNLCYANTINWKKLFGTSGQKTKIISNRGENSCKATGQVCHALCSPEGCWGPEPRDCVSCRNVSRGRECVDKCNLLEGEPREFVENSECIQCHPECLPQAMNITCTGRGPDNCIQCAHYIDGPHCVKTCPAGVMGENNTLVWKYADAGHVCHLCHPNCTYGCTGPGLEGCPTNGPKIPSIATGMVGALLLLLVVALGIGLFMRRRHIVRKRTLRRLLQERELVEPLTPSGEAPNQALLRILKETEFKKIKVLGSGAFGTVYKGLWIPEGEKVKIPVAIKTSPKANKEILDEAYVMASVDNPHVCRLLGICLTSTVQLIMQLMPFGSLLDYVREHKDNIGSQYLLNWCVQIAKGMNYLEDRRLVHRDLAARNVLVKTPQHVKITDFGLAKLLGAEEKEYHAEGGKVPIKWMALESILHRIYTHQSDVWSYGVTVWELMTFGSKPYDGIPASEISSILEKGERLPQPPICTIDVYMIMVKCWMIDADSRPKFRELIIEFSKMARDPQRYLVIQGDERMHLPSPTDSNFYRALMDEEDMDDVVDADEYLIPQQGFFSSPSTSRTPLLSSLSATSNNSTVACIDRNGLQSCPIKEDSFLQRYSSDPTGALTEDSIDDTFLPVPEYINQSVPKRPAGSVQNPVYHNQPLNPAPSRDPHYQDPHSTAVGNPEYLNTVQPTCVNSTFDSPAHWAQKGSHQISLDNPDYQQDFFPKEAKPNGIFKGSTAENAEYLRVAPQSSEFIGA
Sequence of EGFR wildtype (WT) (P00533 25-1210): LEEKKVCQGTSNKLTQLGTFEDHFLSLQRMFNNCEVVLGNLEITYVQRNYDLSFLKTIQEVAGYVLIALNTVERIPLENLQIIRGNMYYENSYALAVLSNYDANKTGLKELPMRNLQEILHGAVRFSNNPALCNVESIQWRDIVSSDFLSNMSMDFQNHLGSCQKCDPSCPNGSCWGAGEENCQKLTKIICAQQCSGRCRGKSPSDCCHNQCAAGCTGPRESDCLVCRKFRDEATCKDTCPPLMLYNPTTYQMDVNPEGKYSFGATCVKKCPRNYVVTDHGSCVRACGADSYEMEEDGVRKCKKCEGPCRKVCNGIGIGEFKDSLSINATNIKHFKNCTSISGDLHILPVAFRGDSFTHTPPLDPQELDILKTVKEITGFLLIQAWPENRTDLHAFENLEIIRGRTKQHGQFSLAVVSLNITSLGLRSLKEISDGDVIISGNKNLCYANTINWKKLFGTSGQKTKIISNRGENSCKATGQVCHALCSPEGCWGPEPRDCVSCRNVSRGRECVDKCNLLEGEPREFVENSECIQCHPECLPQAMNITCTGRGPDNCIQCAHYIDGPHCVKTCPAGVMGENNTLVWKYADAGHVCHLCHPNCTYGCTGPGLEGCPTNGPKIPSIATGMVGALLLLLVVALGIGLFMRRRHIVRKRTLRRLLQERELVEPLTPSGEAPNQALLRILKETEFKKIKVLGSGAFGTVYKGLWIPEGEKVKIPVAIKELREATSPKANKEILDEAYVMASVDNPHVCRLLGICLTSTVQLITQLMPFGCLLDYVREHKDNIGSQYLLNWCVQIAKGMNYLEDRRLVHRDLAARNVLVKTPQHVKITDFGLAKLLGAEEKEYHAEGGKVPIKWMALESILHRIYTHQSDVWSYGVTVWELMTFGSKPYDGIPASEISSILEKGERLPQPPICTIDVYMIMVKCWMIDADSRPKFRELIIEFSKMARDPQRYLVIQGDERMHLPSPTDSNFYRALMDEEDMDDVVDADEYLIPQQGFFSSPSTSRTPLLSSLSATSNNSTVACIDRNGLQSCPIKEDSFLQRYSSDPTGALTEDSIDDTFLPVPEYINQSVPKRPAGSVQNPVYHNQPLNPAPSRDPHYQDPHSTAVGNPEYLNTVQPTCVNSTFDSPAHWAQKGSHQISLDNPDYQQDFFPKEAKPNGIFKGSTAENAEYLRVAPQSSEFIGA

| Compound | IC50 [1, 6] | IC50 [1, 7] | IC50 [2, 8] | IC50 [2, 9] | IC50 [3, 10] | IC50 [3, 11] | IC50 [4, 12] | IC50 [4, 13] | IC50 [5, 14] | IC50 [5, 15] |
| --- | --- | --- | --- | --- | --- | --- | --- | --- | --- | --- |
| O=S(=O)(C1CC1)n1cc(-c2nccc(Nc3cc(N[C@H]4CCC[C@H](CO)C4)c(-c4ccn(C(F)F)n4)cn3)n2)cn1 [Example 202, ((1S,3S)-3-((2-((2-(1-(Cyclopropylsulfonyl)-1H-pyrazol-4-yl)pyrimidin-4-yl)amino)-5-(1-(difluoromethyl)-1H-pyrazol-3-yl)pyridin-4-yl)amino)cyclohexyl)methanol] | 1.3 nM | 1.1 nM | 1.4 nM | 0.5 nM | 6.6 nM | 1.4 nM | 17.8 nM | 2.7 nM | > 10000 nM | 10.6 nM |
| CN(C)C[C@H]1C[C@@H](CNc2cc(Nc3ccnc(-c4cnn(S(=O)(=O)C5CC5)c4)n3)ncc2-c2ccn(C(F)F)n2)C1 [Example 203, N^2-(2-(1-(Cyclopropylsulfonyl)-1H-pyrazol-4-yl)pyrimidin-4-yl)-5-(1-(difluoromethyl)-1H-pyrazol-3-yl)-N^4-(((1s,3s)-3-((dimethylamino)methyl)cyclobutyl)methyl)pyridine-2,4-diamine] | 0.1 nM |  | 0.2 nM |  | 1.1 nM |  | 8.3 nM |  | 2970 nM |  |
| CN(CC(F)F)C(=O)[C@H]1CC[C@@H](Nc2cc(Nc3ccnc(-c4cnn(S(=O)(=O)C5CC5)c4)n3)ncc2-c2ccn(C(F)F)n2)CC1 [Example 204, (1s,4s)-4-((2-((2-(1-(Cyclopropylsulfonyl)-1H-pyrazol-4-yl)pyrimidin-4-yl)amino)-5-(1-(difluoromethyl)-1H-pyrazol-3-yl)pyridin-4-yl)amino)-N-(2,2-difluoroethyl)-N-methylcyclohexane-1-carboxamide] | 0.9 nM | 0.9 nM | 0.8 nM | 0.4 nM | 4 nM |  | 36.1 nM |  | > 10000 nM | 9.5 nM |
| CN(C)C[C@H]1C[C@H](CNc2cc(Nc3ccnc(-c4cnn(S(=O)(=O)C5CC5)c4)n3)ncc2-c2ccn(C(F)F)n2)C1 [Example 209, N^2-(2-(1-(Cyclopropylsulfonyl)-1H-pyrazol-4-yl)pyrimidin-4-yl)-5-(1-(difluoromethyl)-1H-pyrazol-3-yl)-N^4-(((1r,3r)-3-((dimethylamino)methyl)cyclobutyl)methyl)pyridine-2,4-diamine] |  | 0.3 nM |  | 0.1 nM |  | 6.4 nM |  | 4.8 nM |  | 13.1 nM |
| CCC(C)Nc1cc(Nc2ccnc(-c3cnn(S(=O)(=O)C4CC4)c3)n2)ncc1-c1ccn(C(F)F)n1 (centres unmarked) [Example 210, N^4-(sec-Butyl)-N^2-(2-(1-(cyclopropylsulfonyl)-1H-pyrazol-4-yl)pyrimidin-4-yl)-5-(1-(difluoromethyl)-1H-pyrazol-3-yl)pyridine-2,4-diamine] |  | 1.7 nM |  | 1.3 nM |  | 70.5 nM |  | 6.5 nM |  | 90.5 nM |
| C[C@H](CCF)Nc1cc(Nc2ccnc(-c3cnn(S(=O)(=O)C4CC4)c3)n2)ncc1-c1ccn(C(F)F)n1 [Example 212, (R)—N^2-(2-(1-(Cyclopropylsulfonyl)-1H-pyrazol-4-yl)pyrimidin-4-yl)-5-(1-(difluoromethyl)-1H-pyrazol-3-yl)-N^4-(4-fluorobutan-2-yl)pyridine-2,4-diamine] |  | 2.1 nM |  | 2.3 nM |  | 72 nM |  | 38.5 nM |  | 294 nM |
| CC(Nc1cc(Nc2ccnc(-c3cnn(S(=O)(=O)C4CC4)c3)n2)ncc1-c1ccn(C(F)F)n1)C(F)F (centres unmarked) [Example 213, N^2-(2-(1-(Cyclopropylsulfonyl)-1H-pyrazol-4-yl)pyrimidin-4-yl)-5-(1-(difluoromethyl)-1H-pyrazol-3-yl)-N^4-(1,1-difluoropropan-2-yl)pyridine-2,4-diamine] |  | 3.4 nM |  | 2.7 nM |  | 370 nM |  | 123 nM |  | 488 nM |
| O=S(=O)(C1CC1)n1cc(-c2nccc(Nc3cc(NC4CCC(F)(F)CC4)c(-c4ccn(C(F)F)n4)cn3)n2)cn1 [Example 215, N^2-(2-(1-(Cyclopropylsulfonyl)-1H-pyrazol-4-yl)pyrimidin-4-yl)-N^4-(4,4-difluorocyclohexyl)-5-(1-(difluoromethyl)-1H-pyrazol-3-yl)pyridine-2,4-diamine] |  | 11.9 nM |  | 8.6 nM |  | 70.2 nM |  | 32.5 nM |  | 434 nM |
| O=S(=O)(C1CC1)n1cc(-c2nccc(Nc3cc(NC4CCN(CCF)CC4)c(-c4ccn(C(F)F)n4)cn3)n2)cn1 [Example 217, N^2-(2-(1-(Cyclopropylsulfonyl)-1H-pyrazol-4-yl)pyrimidin-4-yl)-5-(1-(difluoromethyl)-1H-pyrazol-3-yl)-N^4-(1-(2-fluoroethyl)piperidin-4-yl)pyridine-2,4-diamine] |  | 0.2 nM |  | 0.4 nM |  | 28.7 nM |  | 23.7 nM |  | 454 nM |
| O=S(=O)(C1CC1)n1cc(-c2nccc(Nc3cc(NC4CCCN(CCF)C4)c(-c4ccn(C(F)F)n4)cn3)n2)cn1 (centres unmarked) [Example 218, N^2-(2-(1-(Cyclopropylsulfonyl)-1H-pyrazol-4-yl)pyrimidin-4-yl)-5-(1-(difluoromethyl)-1H-pyrazol-3-yl)-N^4-(1-(2-fluoroethyl)piperidin-3-yl)pyridine-2,4-diamine] |  | 0.5 nM |  | 0.8 nM |  | 43.9 nM |  | 30.7 nM |  | 233 nM |

More lines, now with the values ahead:

| IC50 [1, 6] | IC50 [1, 7] | IC50 [2, 8] | IC50 [2, 9] | IC50 [3, 10] | IC50 [3, 11] | IC50 [4, 12] | IC50 [4, 13] | IC50 [5, 14] | IC50 [5, 15] | Compound |
| --- | --- | --- | --- | --- | --- | --- | --- | --- | --- | --- |
| 0.6 nM | 0.3 nM | 0.4 nM | 0.2 nM | 1 nM | 0.6 nM | 10.1 nM | 0.4 nM | 3960 nM | 4.4 nM | CN(C)C(=O)C[C@H]1CC[C@@H](Nc2cc(Nc3ccnc(-c4cnn(S(=O)(=O)C5CC5)c4)n3)ncc2-c2ccn(C(F)F)n2)CC1 [Example 205, 2-((1s,4s)-4-((2-((2-(1-(Cyclopropylsulfonyl)-1H-pyrazol-4-yl)pyrimidin-4-yl)amino)-5-(1-(difluoromethyl)-1H-pyrazol-3-yl)pyridin-4-yl)amino)cyclohexyl)-N,N-dimethylacetamide] |
| 22.1 nM |  | 13.8 nM |  | 26.9 nM |  | 206 nM |  | > 10000 nM |  | CN(CC(F)F)C[C@H]1CC[C@@H](Nc2cc(Nc3ccnc(-c4cnn(S(=O)(=O)C5CC5)c4)n3)ncc2-c2ccn(C(F)F)n2)CC1 [Example 206, N^2-(2-(1-(Cyclopropylsulfonyl)-1H-pyrazol-4-yl)pyrimidin-4-yl)-N^4-((1s,4s)-4-(((2,2-difluoroethyl)(methyl)amino)methyl)cyclohexyl)-5-(1-(difluoromethyl)-1H-pyrazol-3-yl)pyridine-2,4-diamine] |
| 0.3 nM | 0.3 nM | 0.1 nM | 0.1 nM | 0.2 nM | 0.2 nM | 0.2 nM | 0.2 nM | 128 nM | 0.6 nM | O=S(=O)(C1CC1)n1cc(-c2nccc(Nc3cc(N[C@H]4CC[C@@H](CN5CCC5)CC4)c(-c4ccn(C(F)F)n4)cn3)n2)cn1 [Example 208, N^4-((1s,4s)-4-(Azetidin-1-ylmethyl)cyclohexyl)-N^2-(2-(1-(cyclopropylsulfonyl)-1H-pyrazol-4-yl)pyrimidin-4-yl)-5-(1-(difluoromethyl)-1H-pyrazol-3-yl)pyridine-2,4-diamine] |
|  | 0.6 nM |  | 0.3 nM |  | 0.4 nM |  | 0.1 nM |  | 0.3 nM | CN(C)CC[C@H]1CC[C@@H](Nc2cc(Nc3ccnc(-c4cnn(S(=O)(=O)C5CC5)c4)n3)ncc2-c2ccn(C(F)F)n2)CC1 [Example 211, N^2-(2-(1-(Cyclopropylsulfonyl)-1H-pyrazol-4-yl)pyrimidin-4-yl)-5-(1-(difluoromethyl)-1H-pyrazol-3-yl)-N^4-((1s,4s)-4-(2-(dimethylamino)ethyl)cyclohexyl)pyridine-2,4-diamine] |
|  | 5.2 nM |  | 3.1 nM |  | 9.9 nM |  | 3.4 nM |  | 45.2 nM | O=S(=O)(C1CC1)n1cc(-c2nccc(Nc3cc(NC4CCC(F)CC4)c(-c4ccn(C(F)F)n4)cn3)n2)cn1 (centres unmarked) [Example 214, N^2-(2-(1-(Cyclopropylsulfonyl)-1H-pyrazol-4-yl)pyrimidin-4-yl)-5-(1-(difluoromethyl)-1H-pyrazol-3-yl)-N^4-(4-fluorocyclohexyl)pyridine-2,4-diamine] |
|  | 25.9 nM |  | 9.1 nM |  | 119 nM |  | 26.5 nM |  | 276 nM | O=S(=O)(C1CC1)n1cc(-c2nccc(Nc3cc(NC4CCC(CCF)CC4)c(-c4ccn(C(F)F)n4)cn3)n2)cn1 (centres unmarked) [Example 216, N^2-(2-(1-(Cyclopropylsulfonyl)-1H-pyrazol-4-yl)pyrimidin-4-yl)-5-(1-(difluoromethyl)-1H-pyrazol-3-yl)-N^4-(4-(2-fluoroethyl)cyclohexyl)pyridine-2,4-diamine] |
